Publication PMC6268742, “Flavonoids and Other Compounds from Ouratea ferruginea (Ochnaceae) as Anticancer and Chemopreventive Agents” (Molecules, 2012)
Several values for one entry are separate records, joined by “and”; a condition that tells them apart may be missing. Equal values may be shown once.

What was measured:
[1] = tested on: cytochrome P450-dependent 7-ethoxycoumarin O-deethylase (ECOD); experiment: CYP-catalyzed ethoxycoumarin O-desalkylation (ECOD) inhibition assay with rat liver microsomes; format: biochemical; details: rat hepatic microsomes; for ECOD activity: compound 0.08 mg/mL, activity relative to control (DMSO) = 100%
Experimental: (§1) Male Wistar rats ([…] weight) were obtained from Universidade da Zona Oeste (UEZO). The animals were kept under light- and temperature-controlled conditions and were provided with rodent laboratory chow and water ad libitum. The rats were euthanized prior to the preparation of cytosolic and microsomal fractions. The livers were removed, placed in ice-cold 0.1 M phosphate buffer (pH 7.4) and then homogenized. Fractions were prepared by differential centrifugation and protein content was determined by Peterson’s methods.
(§2) 5,4′-Dihydroxy-7,3′5′-trimethoxyisoflavone (9), 7,3′-di-O-methylorobol (10), piscigenin (11), and sequoiaflavone (15) were accurately weighed. Solutions were prepared at a concentration of 8 mg/mL using DMSO as a solvent. CYP1A and GST assays were used aliquots of 10 µL of solution.
Ethoxycoumarin O-desalkylation by rat liver microsomes was used as a probe to determine CYP1A activity. Ethoxycumarin (1 mM), NADPH (1 mM), magnesium chloride (10 mM) and rat liver microsomes (5.5 μg) were incubated in phosphate buffer (0.1 M), pH 7.8 (0.5 mL ﬁnal volume). Incubations were at 37 °C for 5 min. The reaction was terminated with trichloroacetic acid (TCA) 2.5% followed by centrifugation (1000 g, 10 min). Immediately before ﬂuorescence determination, 2 mL of glycine-NaOH buffer were added and fluorescence of cumarin was determined (excitation: 390 nm and emission 440 nm). CYP activity was calculated as amount of produced cumarin per minute per protein mg. Assays containing phytochemicals were compared with control with DMSO (dimethylsulfoxide).

[2] = tested on: glutathione S-transferase (GST); experiment: Glutathione S-transferase (GST) inhibition assay (CDNB conjugation) with rat hepatic cytosolic fraction; format: biochemical; details: for inhibition of GST activity: 0.08 mg/mL; for GST activity: compound 0.08 mg/mL, activity relative to control (DMSO), CDNB substrate
Experimental: as §1, §2
The conjugation of glutathione to 1-chloro-2,4,-dinitrobenzene (CDNB) was measured as a non-speciﬁc substrate for GST activity. To a quartz cuvette reduced cytosolic fraction (10 μg), CDNB (2 mM) and 100 mM potassium phosphate buffer (pH 6.1) were added in a ﬁnal volume of 1 mL. The cuvette was placed in a spectrophotometer and the reaction initiated by the addition of glutathione (5 mM). The increase in absorbance at 340 nm over a 3 min period was measured at room temperature. An extinction coefﬁcient of […] was used to determine activity from the initial slope of the reaction. GST activity was calculated as amount of produced conjugated per minute per protein mg. Assays containing phytochemicals were compared with control with DMSO (dimethylsulfoxide).

[3] = tested on: CYP1A1; design: method as in PMID 15661813; details: HepG2 cell; cited from earlier work
[4] = tested on: 7-ethoxycoumarin O-deethylase (ECOD); design: method as in PMID 9522437; details: liver microsomes from rats treated with 3-methylcholanthrene; cited from earlier work

Molecule	ECOD activity [1]	inhibition of GST activity [2]	GST activity [2]	inhibition of ECOD activity ([1]; compared with control 100%, 0.08 mg/mL)	CYP1A1 EROD activity [3]	effect on microsomal ECOD activity [4]
COc1cc(O)c2c(=O)c(-c3cc(OC)c(O)c(OC)c3)coc2c1 [Compound 9, 5,4′-dihydroxy-7,5′,3′-trimethoxyisoflavone]	66.9 ±27.7%	~75%	25.3 ±5.3%	–	–	–
COc1cc(O)c2c(=O)c(-c3ccc(O)c(OC)c3)coc2c1 [Compound 10, 7,3′-di-O-methylorobol]	77.8 ± 11.6%	not observed	–	–	–	–
COc1cc(-c2coc3cc(O)cc(O)c3c2=O)cc(OC)c1O [Compound 11, piscigenin]	53.5 ± 12.4%	~70%	32.2 ±1.3%	–	–	–
COc1cc(O)c2c(=O)cc(-c3ccc(O)c(-c4c(O)cc(O)c5c(=O)cc(-c6ccc(O)cc6)oc45)c3)oc2c1 [Compound 15, sequoiaflavone]	24.8% and 24.8 ± 1.2%	–	77.4 ± 6.7%	75%	–	–
COc1cc(OC)c2c(=O)cc(-c3ccccc3)oc2c1 [DMF, 5,7-Dimethoxyflavone]	–	–	–	–	virtually down to zero	–
(±)-catechin	–	–	–	–	–	no effect
